Results: patent US20240041042A1, “1-(PYRIDYL)-5-AZINYLPYRAZOLE DERIVATIVES, AND THEIR USE FOR CONTROL OF UNDESIRED PLANT GROWTH” (Bayer Aktiengesellschaft, priority 2020, published 2024)
Like-named read-outs stand apart in the source and are kept apart here.

Tests used:
Assay type in all cases: in vivo
[1] = tested on: Echinochloa crus-galli (ECHCG); experiment: Pre-emergence herbicidal action against ECHCG
Method in brief: (§1)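 Pre-emergence soil-surface spray, WP/EC formulation, 0.5% additive, 600 l/ha water, rates of 320 g/ha or lower. Greenhouse, ~3 wk. Visual score, % of untreated control (100% = plants dead, 0% = like control).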

Viola tricolor (VIOTR) = experiment: Pre-emergence herbicidal action against VIOTR
Method in brief: as §1

Avena fatua (AVEFA) = experiment: Post-emergence herbicidal action against AVEFA; details: visual rating about 3 weeks after treatment
Method in brief: (§2)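 Rates were 320 g/ha or below, applied as aqueous WP/EC spray with 0.5% additive (600 l/ha) onto one-leaf-stage plants. About 3 weeks later in the greenhouse, damage was scored visually against untreated plants on a 0–100% scale, where 100% means plants died.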

[2] = tested on: Polygonum convolvulus (POLCO); experiment: Post-emergence herbicidal action against POLCO
Method in brief: as §2

Oryza sativa (ORYSA) = details: crop plant compatibility, effect in comparison to untreated controls
Method in brief: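 Effects were read visually as % versus untreated controls (0% = no effect, 100% = death) about 3 weeks post-treatment. Application was a post-emergence spray at the one-leaf stage of WP/EC formulations with 0.5% additive at 600 l/ha. Different dosages are denoted a, b and c.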

| Post-emergence action against ORYSA in % (Oryza sativa (ORYSA); 80 g/ha) [%] | Post-emergence action against ORYSA in % (Oryza sativa (ORYSA); 320 g/ha) [%] | Compound | Pre-emergence action against ECHCG in % ([1]; dosage 80 g/ha) [%] | Pre-emergence action against ECHCG in % ([1]; dosage 320 g/ha) [%] | Pre-emergence action against VIOTR in % (Viola tricolor (VIOTR); 320 g/ha, Viola tricolor) [%] | Pre-emergence action against VIOTR in % (Viola tricolor (VIOTR); dosage 80 g/ha) [%] | Post-emergence action against AVEFA in % (Avena fatua (AVEFA); 80 g/ha) [%] | Post-emergence action against AVEFA in % (Avena fatua (AVEFA); 320 g/ha) [%] | Post-emergence action against POLCO in % ([2]; dosage 80 g/ha) [%] | Post-emergence action against POLCO in % ([2]; dosage 320 g/ha) [%] |
| --- | --- | --- | --- | --- | --- | --- | --- | --- | --- | --- |
|  |  | COC(=O)[C@@H](C)Oc1nn(-c2ccccn2)c(-c2cncc(F)c2)c1Cl [Example I-189] | 90 | 100 | 100 | 100 | 90 | 90 |  |  |
|  |  | CCOC(=O)[C@@H](C)Oc1nn(-c2ccccn2)c(-c2cncc(F)c2)c1Cl [Example I-184] | 90 | 100 | 100 | 100 | 80 | 90 | 80 | 80 |
| 10 | 20 | COC(=O)CNC(=O)[C@@H](C)Oc1nn(-c2ccccn2)c(-c2cncc(F)c2)c1Br [Example I-187] | 90 | 100 | 100 | 100 |  | 80 | 80 | 80 |
| 20 |  | COC(=O)C(C)NC(=O)[C@@H](C)Oc1nn(-c2ccccn2)c(-c2cncc(F)c2)c1Br (stereo partly drawn) [Example I-190] | 90 | 100 | 100 | 100 |  | 80 | 80 | 80 |
|  |  | COC(=O)CCOC(=O)[C@@H](C)Oc1nn(-c2ccccn2)c(-c2cncc(F)c2)c1Cl [Example I-196] | 90 | 90 | 100 | 90 | 80 | 90 | 80 | 80 |
|  |  | COC(=O)C(C)NC(=O)[C@@H](C)Oc1nn(-c2ccccn2)c(-c2cncc(F)c2)c1Cl (stereo partly drawn) [Example I-199] | 90 | 90 | 100 | 100 |  | 80 |  |  |
|  |  | C[C@@H](Oc1nn(-c2ccccn2)c(-c2cncc(F)c2)c1Cl)C(=O)O [Example I-218] | 90 | 100 | 100 | 100 | 80 | 90 |  | 80 |
|  |  | COC(=O)[C@@H](C)Oc1nn(-c2nc(F)ccc2F)c(-c2cncc(F)c2)c1Br [Example I-191] | 90 | 100 | 100 | 100 | 80 | 90 |  |  |
|  |  | CCOC(=O)[C@@H](C)Oc1nn(-c2ncccc2F)c(-c2ccc(F)nc2)c1C1CC1 [Example I-375] | 80 | 100 | 100 | 100 | 90 | 90 | 80 | 90 |
|  |  | COC(=O)[C@@H](C)Oc1nn(-c2ncccc2F)c(-c2ccc(F)nc2)c1C(F)(F)F [Example I-331] | 80 | 100 | 100 | 100 | 90 | 90 | 80 | 80 |
|  |  | C[C@@H](Oc1nn(-c2ncccc2F)c(-c2ccc(F)nc2)c1C1CC1)C(=O)O [Example I-342] | 100 | 100 | 100 | 100 | 90 | 100 | 80 | 90 |
